Columns and labels:
[1] = biological target: soluble human BACE1 catalytic domain (Homo sapiens (Human), UniProt P56817); assay: BACE1 HTRF FRET Assay; type: biochemical; details: Ki calculated from IC50 using the Cheng-Prusoff equation; QSY7-APPswe-Eu substrate, pH 5.0
Excerpt: Na^+-Acetate pH 5.0; 1% Brij-35; Glycerol; Dimethyl Sulfoxide (DMSO); Recombinant human soluble BACE1 catalytic domain (>95% pure); APP Swedish mutant peptide substrate (QSY7-APP^swe-Eu): QSY7-EISEVNLDAEFC-Europium-amide.
A homogeneous time-resolved FRET assay can be used to determine IC50 values for inhibitors of the soluble human BACE1 catalytic domain. This assay monitors the increase of 620 nm fluorescence that resulted from BACE1 cleavage of an APPswedish APP^swe mutant peptide FRET substrate (QSY7-EISEVNLDAEFC-Europium-amide). This substrate contains an N-terminal QSY7 moiety that serves as a quencher of the C-terminal Europium fluorophore (620 nm Em). In the absence of enzyme activity, 620 nm fluorescence is low in the assay and increased linearly over 3 hours in the presence of uninhibited BACE1 enzyme Inhibition of BACE1 cleavage of the QSY7-APP^swe-Eu substrate by inhibitors is manifested as a suppression of 620 nm fluorescence.
Varying concentrations of inhibitors at 3× the final desired concentration in a volume of 10 ul are preincubated with purified human BACE1 catalytic domain (3 nM in 10 μl) for 30 minutes at 30° C. in reaction buffer containing 20 mM Na-Acetate pH 5.0, 10% glycerol, 0.1% Brij-35 and 7.5% DSMO. […]

[2] = biological target: purified human autoBACE-2 (Homo sapiens (Human), UniProt Q9Y5Z0); assay: BACE-2 Assay (BACE-HTRF assay); type: biochemical; details: Ki calculated from IC50 using the Cheng-Prusoff equation; QSY7-EISEVNLDAEFC-Eu-amide substrate, pH 5.0; read-out: BACE2 Ki
purified human autoBACE-2, sequence (Q9Y5Z0 63-473 limits assumed): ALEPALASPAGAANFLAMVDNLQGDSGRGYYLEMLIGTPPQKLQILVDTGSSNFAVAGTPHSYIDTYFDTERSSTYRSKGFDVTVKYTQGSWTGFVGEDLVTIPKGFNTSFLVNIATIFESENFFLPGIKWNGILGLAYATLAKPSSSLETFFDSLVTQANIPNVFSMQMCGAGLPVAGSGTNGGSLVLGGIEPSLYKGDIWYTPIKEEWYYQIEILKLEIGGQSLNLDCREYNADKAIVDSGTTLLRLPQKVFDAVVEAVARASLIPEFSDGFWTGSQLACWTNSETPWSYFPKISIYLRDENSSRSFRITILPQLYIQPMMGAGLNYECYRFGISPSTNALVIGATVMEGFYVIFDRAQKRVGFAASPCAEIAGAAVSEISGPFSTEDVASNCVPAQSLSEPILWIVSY
Procedure: Inhibitor IC50s at purified human autoBACE-2 are determined in a time-resolved endpoint proteolysis assay that measures hydrolysis of the QSY7-EISEVNLDAEFC-Eu-amide FRET peptide substrate (BACE-HTRF assay). BACE-mediated hydrolysis of this peptide results in an increase in relative fluorescence (RFU) at 620 nm after excitation with 320 nm light Inhibitor compounds, prepared at 3× the desired final concentration in 1×BACE assay buffer (20 mM sodium acetate pH 5.0, 10% glycerol, 0.1% Brij-35) supplemented with 7.5% DMSO are pre-incubated with an equal volume of autoBACE-2 enzyme diluted in 1×BACE assay buffer (final enzyme concentration 1 nM) in black 384-well NUNC plates for 30 minutes at 30° C. […] Following laser excitation of sample wells at 320 nm, the fluorescence signal at 620 nm is collected for 400 ms following a 50 μs delay on a RUBYstar HTRF plate reader (BMG Labtechnologies). […] IC50, are determined by nonlinear regression analysis (sigmoidal dose response, variable slope) of percent inhibition data with minimum and maximum values set to 0 and 100 percent respectively. […] The Ki values are calculated from the IC50 using the Cheng-Prusoff equation.

soluble human BACE1 catalytic domain, sequence (P56817 75-416): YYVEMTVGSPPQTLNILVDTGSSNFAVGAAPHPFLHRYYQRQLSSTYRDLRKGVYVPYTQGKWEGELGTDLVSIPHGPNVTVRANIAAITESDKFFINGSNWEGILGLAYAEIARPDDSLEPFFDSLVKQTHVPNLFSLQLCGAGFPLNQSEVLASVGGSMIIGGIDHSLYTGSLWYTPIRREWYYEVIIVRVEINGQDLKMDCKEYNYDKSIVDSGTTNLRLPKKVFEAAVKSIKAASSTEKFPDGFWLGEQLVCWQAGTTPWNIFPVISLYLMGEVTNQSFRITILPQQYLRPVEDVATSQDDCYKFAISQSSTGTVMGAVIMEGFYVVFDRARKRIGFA

Ki [1] [nM] | Ki [2] [nM] | Compound
8 | 3 | CCN=S1(=O)C[C@@](C)(c2cc(NC(=O)c3ccc(Cl)cn3)ccc2F)NC(=N)N1C (stereo partly shown) [Example 5]
10 | 3 | CCN1C(=N)N[C@](C)(c2cc(NC(=O)c3ccc(Cl)cn3)ccc2F)CS1(=O)=NC (stereo partly shown) [Example 6]

Source: patent publication US9428476B2, “S-imino-S-oxo-iminothiadiazine compounds as BACE inhibitors, compositions, and their use” (Merck Sharp & Dohme Corp., priority 2013, dated 2016)
